Test results taken from ChEMBL document CHEMBL6127116, “Discovery of Potent and Selective Blockers Targeting the Epilepsy-Associated KNa1.1 Channel” (J Med Chem, 2024).

Key:
[1] = target: T1, Potassium channel subfamily T member 1 (Homo sapiens, UniProt Q5JUK3); assay: Inhibition of human SLACK expressed in HEK293 cells
T1 sequence (Q5JUK3 whole entry): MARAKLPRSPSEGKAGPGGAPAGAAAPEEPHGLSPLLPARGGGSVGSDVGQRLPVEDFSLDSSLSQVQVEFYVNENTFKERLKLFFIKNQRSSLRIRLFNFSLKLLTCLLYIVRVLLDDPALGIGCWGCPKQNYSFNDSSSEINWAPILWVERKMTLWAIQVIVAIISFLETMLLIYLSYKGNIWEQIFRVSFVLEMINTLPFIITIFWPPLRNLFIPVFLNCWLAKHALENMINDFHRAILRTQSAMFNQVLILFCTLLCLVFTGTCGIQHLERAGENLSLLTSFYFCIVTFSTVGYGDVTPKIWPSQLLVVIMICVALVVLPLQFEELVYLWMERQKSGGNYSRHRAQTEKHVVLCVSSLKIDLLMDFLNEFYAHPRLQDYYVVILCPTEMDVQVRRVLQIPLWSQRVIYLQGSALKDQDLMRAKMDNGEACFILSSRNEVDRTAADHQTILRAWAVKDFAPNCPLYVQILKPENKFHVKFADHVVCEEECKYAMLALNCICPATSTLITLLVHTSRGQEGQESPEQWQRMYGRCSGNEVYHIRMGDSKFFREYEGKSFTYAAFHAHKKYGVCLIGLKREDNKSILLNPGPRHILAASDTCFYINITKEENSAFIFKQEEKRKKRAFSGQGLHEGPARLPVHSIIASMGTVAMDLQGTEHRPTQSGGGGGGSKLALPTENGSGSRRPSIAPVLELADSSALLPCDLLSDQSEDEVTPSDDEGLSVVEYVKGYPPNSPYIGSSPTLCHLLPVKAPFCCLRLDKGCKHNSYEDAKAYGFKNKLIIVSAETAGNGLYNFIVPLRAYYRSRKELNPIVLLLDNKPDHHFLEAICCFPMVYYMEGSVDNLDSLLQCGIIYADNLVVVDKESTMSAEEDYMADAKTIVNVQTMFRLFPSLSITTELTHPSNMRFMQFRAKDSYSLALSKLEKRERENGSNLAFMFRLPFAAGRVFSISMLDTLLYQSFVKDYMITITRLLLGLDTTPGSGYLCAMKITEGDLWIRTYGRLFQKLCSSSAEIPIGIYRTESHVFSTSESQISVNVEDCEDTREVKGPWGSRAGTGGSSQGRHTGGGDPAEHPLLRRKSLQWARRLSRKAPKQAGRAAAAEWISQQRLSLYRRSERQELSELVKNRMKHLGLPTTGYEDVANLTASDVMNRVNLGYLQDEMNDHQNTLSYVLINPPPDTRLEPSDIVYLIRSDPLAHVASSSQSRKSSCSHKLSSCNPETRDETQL

[2] = target: T1, Potassium channel subfamily T member 1; assay: Inhibition of wild type human KNa1.1 expressed in HEK293T cells by patch-clamp electrophysiology method; assay type: cell-based
HEK293 = assay: Cytotoxicity against HEK293 cells assessed as reduction in cell viability at 10 uM by CCK8 method relative to control; assay type: toxicity, cell-based; conditions: human, hek293, 10 µM
[3] = Cmax in male ICR mouse at 10 mg/kg, iv administered as single dose measured upto 24 hrs by HPLC analysis; assay type: ADME, organism-based; conditions: in vivo
[4] = Tmax in male ICR mouse at 10 mg/kg, iv administered as single dose measured upto 24 hrs by HPLC analysis; assay type: ADME, organism-based; conditions: in vivo
[5] = Half life in male ICR mouse at 10 mg/kg, iv administered as single dose measured upto 24 hrs by HPLC analysis; assay type: ADME, organism-based; conditions: in vivo
[6] = AUC (0 to t) in male ICR mouse at 10 mg/kg, iv administered as single dose measured upto 24 hrs by HPLC analysis; assay type: ADME, organism-based; conditions: in vivo
[7] = Clearance in male ICR mouse at 10 mg/kg, iv administered as single dose measured upto 24 hrs by HPLC analysis; assay type: ADME, organism-based; conditions: in vivo
[8] = MRT (0 to t) in male ICR mouse at 10 mg/kg, iv administered as single dose measured upto 24 hrs by HPLC analysis; assay type: ADME, organism-based; conditions: in vivo
[9] = Volume of distribution at steady state in male ICR mouse at 10 mg/kg, iv administered as single dose measured upto 24 hrs by HPLC analysis; assay type: ADME, organism-based; conditions: in vivo, read-out: Vdss
[10] = Cmax in male ICR mouse at 50 mg/kg, po administered as single dose measured upto 24 hrs by HPLC analysis; assay type: ADME, organism-based; conditions: in vivo
[11] = Tmax in male ICR mouse at 50 mg/kg, po administered as single dose measured upto 24 hrs by HPLC analysis; assay type: ADME, organism-based; conditions: in vivo
[12] = Half life in male ICR mouse at 50 mg/kg, po administered as single dose measured upto 24 hrs by HPLC analysis; assay type: ADME, organism-based; conditions: in vivo
[13] = AUC (0 to t) in male ICR mouse at 50 mg/kg, po administered as single dose measured upto 24 hrs by HPLC analysis; assay type: ADME, organism-based; conditions: in vivo
[14] = MRT (0 to t) in male ICR mouse at 50 mg/kg, po administered as single dose measured upto 24 hrs by HPLC analysis; assay type: ADME, organism-based; conditions: in vivo
[15] = Oral bioavailability in male ICR mouse at 50 mg/kg administered as single dose measured upto 24 hrs by HPLC analysis; assay type: ADME, organism-based; conditions: in vivo
[16] = Drug concentration in male ICR mouse brain at 10 mg/kg, iv measured after 0.5 hrs by LC-MS/MS analysis; assay type: ADME, organism-based; conditions: read-out: Ct
[17] = Drug concentration in male ICR mouse plasma at 10 mg/kg, iv measured after 0.5 hrs by LC-MS/MS analysis; assay type: ADME, organism-based
[18] = Ratio of drug concentration in male ICR mouse brain to plasma at 10 mg/kg, iv measured after 0.5 hrs by LC-MS/MS analysis; assay type: ADME, organism-based; conditions: brain and plasma, read-out: BPR
[19] = Drug concentration in male ICR mouse brain at 10 mg/kg, iv measured after 2 hrs by LC-MS/MS analysis; assay type: ADME, organism-based; conditions: read-out: Ct
[20] = Drug concentration in male ICR mouse plasma at 10 mg/kg, iv measured after 2 hrs by LC-MS/MS analysis; assay type: ADME, organism-based
[21] = Ratio of drug concentration in male ICR mouse brain to plasma at 10 mg/kg, iv measured after 2 hrs by LC-MS/MS analysis; assay type: ADME, organism-based; conditions: brain and plasma, read-out: BPR
[22] = Drug concentration in male ICR mouse brain at 50 mg/kg, po measured after 0.5 hrs by LC-MS/MS analysis; assay type: ADME, organism-based; conditions: read-out: Ct
[23] = Drug concentration in male ICR mouse plasma at 50 mg/kg, po measured after 0.5 hrs by LC-MS/MS analysis; assay type: ADME, organism-based
[24] = Ratio of drug concentration in male ICR mouse brain to plasma at 50 mg/kg, po measured after 0.5 hrs by LC-MS/MS analysis; assay type: ADME, organism-based; conditions: brain and plasma, read-out: BPR
[25] = Drug concentration in male ICR mouse brain at 50 mg/kg, po measured after 2 hrs by LC-MS/MS analysis; assay type: ADME, organism-based; conditions: read-out: Ct
[26] = Drug concentration in male ICR mouse plasma at 50 mg/kg, po measured after 2 hrs by LC-MS/MS analysis; assay type: ADME, organism-based
[27] = Ratio of drug concentration in male ICR mouse brain to plasma at 50 mg/kg, po measured after 2 hrs by LC-MS/MS analysis; assay type: ADME, organism-based; conditions: brain and plasma, read-out: BPR
[28] = Inhibition of KNa1.1 F327I mutant (unknown origin) expressed in HEK293T cells by patch-clamp electrophysiology method; assay type: cell-based; conditions: Homo sapiens, HEK-293T
[29] = target: T2, Voltage-gated inwardly rectifying potassium channel KCNH2 (Homo sapiens, UniProt Q12809); assay: Inhibition of human ERG expressed in Xenopus laevis oocytes by two-electrode voltage clamp method; assay type: toxicity, cell-based, Oocyte
T2 sequence (Q12809 whole entry): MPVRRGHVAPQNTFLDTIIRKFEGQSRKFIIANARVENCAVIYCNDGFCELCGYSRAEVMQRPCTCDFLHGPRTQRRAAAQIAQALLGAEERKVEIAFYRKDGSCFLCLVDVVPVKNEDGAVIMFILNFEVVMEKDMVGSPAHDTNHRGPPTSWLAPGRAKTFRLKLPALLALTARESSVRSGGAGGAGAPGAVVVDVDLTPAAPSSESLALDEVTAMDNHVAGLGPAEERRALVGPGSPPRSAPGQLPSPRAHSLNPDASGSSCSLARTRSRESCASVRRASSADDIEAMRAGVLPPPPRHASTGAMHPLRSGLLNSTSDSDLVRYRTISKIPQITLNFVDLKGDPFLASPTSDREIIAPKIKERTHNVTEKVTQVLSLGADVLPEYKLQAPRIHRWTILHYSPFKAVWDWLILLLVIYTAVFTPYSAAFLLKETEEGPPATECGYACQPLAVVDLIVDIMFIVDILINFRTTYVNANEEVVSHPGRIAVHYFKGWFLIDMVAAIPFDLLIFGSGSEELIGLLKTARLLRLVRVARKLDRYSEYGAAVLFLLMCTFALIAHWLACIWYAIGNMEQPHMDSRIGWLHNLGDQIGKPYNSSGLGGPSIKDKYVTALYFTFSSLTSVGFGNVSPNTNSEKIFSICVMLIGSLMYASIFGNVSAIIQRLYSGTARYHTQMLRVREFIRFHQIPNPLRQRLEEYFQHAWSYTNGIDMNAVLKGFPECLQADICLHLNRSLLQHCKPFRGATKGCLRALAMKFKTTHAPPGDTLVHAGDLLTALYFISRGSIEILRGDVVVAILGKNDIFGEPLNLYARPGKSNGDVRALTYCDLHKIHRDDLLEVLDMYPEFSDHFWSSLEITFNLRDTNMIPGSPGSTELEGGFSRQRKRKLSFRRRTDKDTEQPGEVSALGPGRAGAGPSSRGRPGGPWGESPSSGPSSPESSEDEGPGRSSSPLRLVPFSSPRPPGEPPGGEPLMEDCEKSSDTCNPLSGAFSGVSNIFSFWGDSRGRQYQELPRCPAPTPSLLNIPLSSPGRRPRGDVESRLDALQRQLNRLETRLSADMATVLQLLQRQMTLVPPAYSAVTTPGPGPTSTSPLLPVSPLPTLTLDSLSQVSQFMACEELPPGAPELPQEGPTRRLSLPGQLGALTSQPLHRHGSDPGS

[30] = Inhibition of human KNa1.1 Y796H mutant expressed in HEK293T cells by patch-clamp electrophysiology method; assay type: cell-based; conditions: HEK-293T
[31] = target: Sodium channel protein type 5 subunit alpha (Homo sapiens, UniProt Q14524); assay: Inhibition of Nav1.5 (unknown origin) expressed in HEK293T cells at 10 uM by patch-clamp electrophysiology method; assay type: cell-based
Chain of Sodium channel protein type 5 subunit alpha (Q14524 whole entry): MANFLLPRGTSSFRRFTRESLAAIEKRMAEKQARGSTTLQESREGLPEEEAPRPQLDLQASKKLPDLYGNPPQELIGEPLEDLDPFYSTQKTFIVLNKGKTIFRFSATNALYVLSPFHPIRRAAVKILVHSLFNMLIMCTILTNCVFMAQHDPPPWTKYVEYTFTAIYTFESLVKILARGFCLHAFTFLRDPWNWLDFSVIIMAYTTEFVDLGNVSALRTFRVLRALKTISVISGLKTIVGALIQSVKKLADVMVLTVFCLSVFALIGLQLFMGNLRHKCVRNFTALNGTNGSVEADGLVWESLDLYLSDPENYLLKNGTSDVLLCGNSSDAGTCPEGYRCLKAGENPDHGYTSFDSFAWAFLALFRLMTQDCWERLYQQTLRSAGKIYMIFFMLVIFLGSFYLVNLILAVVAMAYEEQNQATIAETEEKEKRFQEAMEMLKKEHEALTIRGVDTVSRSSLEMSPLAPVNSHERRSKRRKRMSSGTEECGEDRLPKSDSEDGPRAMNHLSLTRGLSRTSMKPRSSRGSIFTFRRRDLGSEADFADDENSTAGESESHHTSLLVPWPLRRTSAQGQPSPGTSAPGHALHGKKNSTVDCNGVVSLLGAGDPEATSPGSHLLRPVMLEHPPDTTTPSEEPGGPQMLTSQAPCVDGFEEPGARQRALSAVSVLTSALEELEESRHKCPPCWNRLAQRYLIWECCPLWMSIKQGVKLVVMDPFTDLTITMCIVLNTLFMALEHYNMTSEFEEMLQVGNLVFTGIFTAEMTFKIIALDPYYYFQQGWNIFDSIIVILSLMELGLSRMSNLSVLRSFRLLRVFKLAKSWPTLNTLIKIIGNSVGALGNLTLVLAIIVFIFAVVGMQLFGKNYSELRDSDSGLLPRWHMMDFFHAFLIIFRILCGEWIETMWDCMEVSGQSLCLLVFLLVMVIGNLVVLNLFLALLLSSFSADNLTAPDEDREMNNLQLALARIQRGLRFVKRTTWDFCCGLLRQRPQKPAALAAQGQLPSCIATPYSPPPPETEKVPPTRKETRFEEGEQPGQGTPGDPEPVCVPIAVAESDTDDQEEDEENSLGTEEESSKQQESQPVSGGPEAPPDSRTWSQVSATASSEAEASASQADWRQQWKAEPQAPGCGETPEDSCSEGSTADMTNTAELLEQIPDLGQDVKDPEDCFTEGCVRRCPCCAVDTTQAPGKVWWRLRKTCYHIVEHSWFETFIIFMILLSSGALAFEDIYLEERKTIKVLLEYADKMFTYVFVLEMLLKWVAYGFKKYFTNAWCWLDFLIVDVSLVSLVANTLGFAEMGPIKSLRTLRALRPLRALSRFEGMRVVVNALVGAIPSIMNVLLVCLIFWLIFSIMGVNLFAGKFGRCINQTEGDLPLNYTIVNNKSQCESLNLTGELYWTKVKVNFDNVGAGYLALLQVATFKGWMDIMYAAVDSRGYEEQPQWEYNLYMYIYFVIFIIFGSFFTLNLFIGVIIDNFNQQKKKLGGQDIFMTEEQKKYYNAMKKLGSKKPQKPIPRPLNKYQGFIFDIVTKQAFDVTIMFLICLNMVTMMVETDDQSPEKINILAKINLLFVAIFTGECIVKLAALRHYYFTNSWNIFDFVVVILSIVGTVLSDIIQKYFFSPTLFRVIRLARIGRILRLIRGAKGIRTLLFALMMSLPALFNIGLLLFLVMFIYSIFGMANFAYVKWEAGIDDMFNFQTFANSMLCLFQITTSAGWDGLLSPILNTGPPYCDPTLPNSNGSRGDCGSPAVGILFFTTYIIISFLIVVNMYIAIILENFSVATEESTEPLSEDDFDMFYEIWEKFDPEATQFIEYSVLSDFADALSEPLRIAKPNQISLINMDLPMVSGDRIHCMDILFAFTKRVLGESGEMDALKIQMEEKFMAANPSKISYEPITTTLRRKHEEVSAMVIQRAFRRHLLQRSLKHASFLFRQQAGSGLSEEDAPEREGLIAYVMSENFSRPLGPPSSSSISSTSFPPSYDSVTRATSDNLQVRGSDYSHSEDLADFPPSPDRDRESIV

[32] = target: T2, Voltage-gated inwardly rectifying potassium channel KCNH2; assay: Inhibition of human ERG expressed in Xenopus laevis oocytes at 10 uM by two-electrode voltage clamp method; assay type: toxicity, cell-based; conditions: oocyte
[33] = Inhibition of KNa 1.1 (unknown origin); set-up: species or system Homo sapiens

Q: For `COc1ccc(Cl)cc1NC(=O)CN1CCN(S(=O)(=O)N2CCC(C)CC2)CC1`, which IC50 [1] is on record?
A: 1.84 µM

Q: Which IC50 [2] does the source give for `c1ccc(COc2ccc3ccccc3c2CCC2CCNCC2)cc1` here?
A: 3.43 µM

Q: What about the Activity (HEK293) of the same compound?
A: 99.63%

Q: And the Cmax [3]?
A: 2180 ng/mL

Q: And the Tmax [4]?
A: 4.8 min

Q: And the half-life [5]?
A: 2.46 h

Q: What about the AUC(0-t) at 24 h [6] of the same compound?
A: 4550 ng·h/mL

Q: And the clearance [7]?
A: 36.6 mL/min/kg

Q: And the MRT last at 24 h [8]?
A: 3.12 h

Q: What about the Vd [9] of the same compound?
A: 6.91 L/kg

Q: What about the Cmax [10] of the same compound?
A: 1290 ng/mL

Q: What about the Tmax [11] of the same compound?
A: 0.5 h

Q: What about the half-life [12] of the same compound?
A: 3.11 h

Q: What about the AUC(0-t) at 24 h [13] of the same compound?
A: 7450 ng·h/mL

Q: What about the MRT last at 24 h [14] of the same compound?
A: 4.96 h

Q: What about the bioavailability [15] of the same compound?
A: 32.8%

Q: What about the concentration at 0.5 h [16] of the same compound?
A: 8010 ng/mL

Q: What about the concentration at 0.5 h [17] of the same compound?
A: 1030 ng/mL

Q: What about the Kp at 0.5 h [18] of the same compound?
A: 7.8

Q: What about the concentration at 2 h [19] of the same compound?
A: 3330 ng/mL

Q: What about the concentration at 2 h [20] of the same compound?
A: 605 ng/mL

Q: And the Kp at 2 h [21]?
A: 5.51

Q: And the concentration at 0.5 h [22]?
A: 604 ng/mL

Q: What about the concentration at 0.5 h [23] of the same compound?
A: 1290 ng/mL

Q: And the Kp at 0.5 h [24]?
A: 0.47

Q: What about the concentration at 2 h [25] of the same compound?
A: 1200 ng/mL

Q: And the concentration at 2 h [26]?
A: 893 ng/mL

Q: What about the Kp at 2 h [27] of the same compound?
A: 1.34

Q: What about the IC50 [28] of the same compound?
A: 24.2 µM

Q: What about the IC50 [29] of the same compound?
A: 90.2 µM

Q: And the IC50 [30]?
A: 0.4 µM

Q: And the “inhibition (INH)” value [31]?
A: Not Active

Q: And the “inhibition (INH)” value [32]?
A: Not Active

Q: With `CN1CCC(NCc2c(OCc3ccc(F)cc3)ccc3ccccc23)CC1` as the compound, how does the Activity (HEK293) read?
A: 53.17%

Q: Which IC50 [33] does the source give for `CCOc1ccccc1S(=O)(=O)N1CC(c2nc(-c3ccsc3)no2)C1` here?
A: 2.1 µM

Q: For `CN(C)CCCCNCc1c(OCc2ccc(F)cc2)ccc2ccccc12`, which “inhibition (INH)” value [31] is on record?
A: Not Active

Q: With `CC(C)COCC(CN(Cc1ccccc1)c1ccccc1)N1CCCC1` (stereo not drawn) [BEPRIDIL] as the compound, how does the IC50 [2] read?
A: 16.3 µM

Q: What about the IC50 [33] of the same compound?
A: 6.36 µM
